Test results from publication PMC10314922, “Fluorescence lifetime FRET assay for live-cell high-throughput screening of the cardiac SERCA pump yields multiple classes of small-molecule allosteric modulators” (Scientific Reports, 2023).
“Also recorded” adds a separate entry of the source. Where two headings read alike, the source gives them in different places.

Assays:
[1] = molecular target: T1, human two-color SERCA2a (2CS) biosensor (Homo sapiens, UniProt P16615, INS508[…]); experiment: FRET concentration response curves (FLT-FRET) with the 2CS biosensor in live HEK cells; assay type: cell-based
T1 construct: expressed in transfected cells
T1 sequence (P16615 other isoform, or with tags, fused parts or gaps with the stated changes): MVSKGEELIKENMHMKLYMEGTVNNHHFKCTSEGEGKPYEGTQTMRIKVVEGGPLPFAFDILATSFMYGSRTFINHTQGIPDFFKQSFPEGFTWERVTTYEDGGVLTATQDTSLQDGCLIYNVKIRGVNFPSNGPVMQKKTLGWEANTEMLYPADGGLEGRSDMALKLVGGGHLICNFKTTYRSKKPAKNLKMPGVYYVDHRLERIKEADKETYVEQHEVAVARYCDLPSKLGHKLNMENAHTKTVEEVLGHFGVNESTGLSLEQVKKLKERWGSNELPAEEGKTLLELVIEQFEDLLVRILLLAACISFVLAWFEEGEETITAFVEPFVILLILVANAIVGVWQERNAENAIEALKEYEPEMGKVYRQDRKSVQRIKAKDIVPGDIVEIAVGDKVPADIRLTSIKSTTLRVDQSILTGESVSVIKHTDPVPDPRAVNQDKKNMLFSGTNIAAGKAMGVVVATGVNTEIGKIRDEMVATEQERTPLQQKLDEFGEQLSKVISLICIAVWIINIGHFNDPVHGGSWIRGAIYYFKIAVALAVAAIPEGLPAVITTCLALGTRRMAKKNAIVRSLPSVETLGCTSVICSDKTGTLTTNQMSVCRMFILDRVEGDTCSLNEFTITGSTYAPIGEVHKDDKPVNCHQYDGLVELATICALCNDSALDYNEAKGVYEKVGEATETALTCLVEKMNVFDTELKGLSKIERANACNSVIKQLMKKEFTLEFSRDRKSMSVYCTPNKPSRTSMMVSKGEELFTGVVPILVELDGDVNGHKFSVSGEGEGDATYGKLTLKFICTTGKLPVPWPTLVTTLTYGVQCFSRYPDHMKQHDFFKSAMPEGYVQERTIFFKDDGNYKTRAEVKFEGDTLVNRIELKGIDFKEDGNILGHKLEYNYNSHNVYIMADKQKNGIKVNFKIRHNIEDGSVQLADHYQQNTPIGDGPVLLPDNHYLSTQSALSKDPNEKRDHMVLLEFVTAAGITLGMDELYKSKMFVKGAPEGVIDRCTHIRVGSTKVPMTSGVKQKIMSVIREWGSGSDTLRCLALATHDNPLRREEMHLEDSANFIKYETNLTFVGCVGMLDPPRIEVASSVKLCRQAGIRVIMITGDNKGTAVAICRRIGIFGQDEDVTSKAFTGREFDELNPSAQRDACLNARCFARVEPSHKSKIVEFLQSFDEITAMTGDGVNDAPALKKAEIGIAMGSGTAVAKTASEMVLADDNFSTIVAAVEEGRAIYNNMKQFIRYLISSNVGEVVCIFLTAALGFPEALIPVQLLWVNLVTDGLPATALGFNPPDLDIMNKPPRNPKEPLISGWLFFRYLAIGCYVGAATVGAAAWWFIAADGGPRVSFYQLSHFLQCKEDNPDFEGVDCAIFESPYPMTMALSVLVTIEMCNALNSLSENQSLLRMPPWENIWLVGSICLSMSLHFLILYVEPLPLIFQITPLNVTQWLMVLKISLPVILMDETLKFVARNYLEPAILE
Description: A two-color intramolecular human SERCA2a (2CS) biosensor, based on human cardiac SERCA2a fused to green fluorescent protein (eGFP) and red fluorescent protein (tagRFP) was developed to detect structural changes that are related to the functional changes of SERCA[20],[22],[25]. Briefly, tagRFP was genetically fused to the N-terminus of SERCA (A-domain) and eGFP was inserted as an intrasequence tag before residue 509 in the nucleotide-binding domain (N-domain)[60],[61]. Donor-only and acceptor-only (1CS) biosensors were created in a similar manner as the 2CS biosensor but with the construct containing either only eGFP or only tag-RFP, respectively. […] A null-biosensor construct consisting of eGFP and tagRFP connected by a 32-residue unstructured flexible linker peptide (G32R) was created as described previously[23],[25]. All constructs were cloned into expression vectors containing the genes for antibiotic resistance to G418, puromycin, or blasticidin.
Stable cell lines were generated using either human embryonic kidney (HEK) HEK293 (ATCC, Manassas, VA) or HEK293-6E (National Research Council, Canada) cells. Briefly, cells were transiently transfected with 2CS, 1CS, or G32R null-biosensor plasmids using Lipofecatime 3000 or 293fectin (Thermo Fisher Scientific). Flow cytometry was used to select and enrich for the population of cells expressing respective biosensors. Stable HEK293 cell lines were maintained in phenol red-free DMEM media (Gibco, Waltham, MA) supplemented with 2 mM GlutaMAX (Gibco, Waltham, MA), 10% fetal bovine serum (FBS) (Atlanta Biologicals, Lawrenceville, GA), 1 IU/mL penicillin/streptomycin (Gibco, Waltham, MA), and 250 μg/mL G418 (Fisher Scientific). Stable HEK293-6E cell lines were maintained in F17 media (Sigma Aldrich) supplemented with Kolliphor p188 (Sigma Aldrich, St. Louis, MO), […] GlutaMAX, and either 1 μg/mL puromycin (Invitrogen, Carlsbad, CA) or 2 μg/mL blasticidin (Goldbio) as a selection antibiotic. All cell lines were grown at 37 °C with 5% CO2.
FRET CRC assay plates (0.78–100 μM compound range) with at least ten different compound concentrations were made by adding the appropriate volume of compound or DMSO into black 384 well plates (Greiner Bio-One) using a Mosquito HV (SPTLabTech, United Kingdom). Subsequent Ca^2+-ATPase activity and Ca^2+-transport CRC assay plates (0–50 μM compound range) with repurchased compounds were made in a similar manner using with the Echo 550 (Beckman Coulter) using either 384 well transparent plates (Greiner Bio-One) or black-walled plates with transparent bottoms (Greiner Bio-One), respectively.
On each day of screening, cells were harvested, washed three times with PBS, and centrifuged at 300 g for 5 min. Cells were filtered using a 70 µm cell strainer and diluted to 1–2 × 10^6 cells/mL. Cell concentration and viability were assessed using the Cell countess (Invitrogen) and trypan blue assay. During assays, cells were constantly and gently stirred using a magnetic stir bar at room temperature, keeping the cells in suspension and evenly distributed to avoid clumping. HEK 293-cells expressing 2CS were dispensed at 5 μL or […] per well into assay plates (dispensed into 40 assay plates, each containing 1536 wells) pre-plated with compounds (from a DIVERset 50,000 compound library) using a Multdrop Combi liquid dispenser (Thermo Fisher Scientific, Pittsburg, PA) and sealed until needed. Because the kinetics of membrane permeability, diffusion, and/or binding of the compound to live cells may be compound-dependent, we tested two incubation times, 20 min and 120 min, for the FRET CRC. […] Plates containing eight-point concentration curves of three tool compounds (known SERCA effectors thapsigargin, BHQ, and CPA)[22] were used as positive controls for biosensor function and performance prior to running the full-scale FRET-HTS assay. […]

SERCA2a [2] = molecular target: T2, SERCA2a (Sus scrofa, UniProt P11607); experiment: NADH-linked Ca2+-ATPase activity assay in pig cardiac SR (pCSR) vesicles; assay type: biochemical; settings: for Ca2+-ATPase C10: concentration yielding 10% effect; for Decrease of ΔFMAX and ΔFMID for Ca2+-ATPase activity: both [Ca2+], stated as size of decrease
T2 construct: Cardiac SR vesicles were isolated from fresh porcine left ventricular tissue using differential centrifugation; from tissue; host or cells: porcine left ventricular tissue (cardiac SR vesicles)
T2 sequence (P11607 1-997 isoform P11607-2): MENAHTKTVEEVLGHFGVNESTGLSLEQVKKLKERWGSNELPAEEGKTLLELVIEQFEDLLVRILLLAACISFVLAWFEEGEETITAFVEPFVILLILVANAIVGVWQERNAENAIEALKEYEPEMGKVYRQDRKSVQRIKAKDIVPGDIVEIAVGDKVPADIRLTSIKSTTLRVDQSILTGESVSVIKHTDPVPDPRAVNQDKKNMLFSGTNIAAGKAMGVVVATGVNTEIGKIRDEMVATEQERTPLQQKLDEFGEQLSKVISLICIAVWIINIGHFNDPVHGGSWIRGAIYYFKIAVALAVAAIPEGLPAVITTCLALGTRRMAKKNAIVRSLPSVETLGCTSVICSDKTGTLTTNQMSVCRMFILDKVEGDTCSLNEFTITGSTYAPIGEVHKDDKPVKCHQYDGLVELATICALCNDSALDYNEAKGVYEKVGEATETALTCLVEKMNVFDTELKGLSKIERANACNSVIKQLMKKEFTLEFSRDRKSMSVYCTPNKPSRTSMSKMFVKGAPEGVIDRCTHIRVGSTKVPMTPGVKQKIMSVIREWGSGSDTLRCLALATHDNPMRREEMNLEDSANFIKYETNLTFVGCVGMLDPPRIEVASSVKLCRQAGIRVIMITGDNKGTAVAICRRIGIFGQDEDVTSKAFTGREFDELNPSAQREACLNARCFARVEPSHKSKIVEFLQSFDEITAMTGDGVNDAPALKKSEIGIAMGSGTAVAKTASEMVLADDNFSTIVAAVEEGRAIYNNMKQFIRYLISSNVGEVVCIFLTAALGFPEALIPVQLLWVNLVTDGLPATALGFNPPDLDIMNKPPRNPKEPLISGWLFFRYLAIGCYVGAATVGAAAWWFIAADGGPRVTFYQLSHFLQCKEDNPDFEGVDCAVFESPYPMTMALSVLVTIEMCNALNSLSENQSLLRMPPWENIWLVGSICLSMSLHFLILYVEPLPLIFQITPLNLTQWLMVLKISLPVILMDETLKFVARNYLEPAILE
Experimental: (§1) Cardiac SR vesicles were isolated from fresh porcine left ventricular tissue using differential centrifugation of the homogenized tissue as previously described. The SR vesicles were flash-frozen and stored at − 80 °C until needed. The SERCA concentration in the ER preparations purified from HEK cell homogenate is at least 10 times less than in purified porcine cardiac SR[20], but there was sufficient expression of the fluorescent SERCA2a biosensor in HEK cells to detect FRET with high precision by FLT[22],[23],[26].
Functional assays were performed using porcine cardiac SR (pCSR) vesicles. An enzyme-coupled, NADH-linked ATPase assay was used to measure SERCA ATPase activity in 384-well microplates. Each well contained 50 mM MOPS (pH 7.0), 100 mM KCl, 1 mM EGTA, 0.2 mM NADH, 1 mM phosphoenol pyruvate, 10 IU/mL of pyruvate kinase, 10 IU/mL of lactate dehydrogenase, 7 µM of the calcium ionophore A23187 (Sigma), and CaCl2 was added to set free [Ca^2+] to three different concentrations. Ca^2+-ATPase activity was measured at three [Ca^2+]: [Ca^2+]MAX (saturating, pCa 5.4), [Ca^2+]MID (subsaturating, midpoint, pCa 6.2), and [Ca^2+]BAS (basal non-activating, pCa 8.0). 10 μg/mL of SR vesicle, calcium, compound (0.048 to 50 μM), and assay mix were incubated for 20 min at room temperature before measurement of functional assays with each of the 18 hit compounds, because a shorter incubation time than the FRET live-cell assays achieved optimal responses. The assay was started upon the addition of MgATP, at a final concentration of 5 mM (total volume to 80 μL), and absorbance was read at 340 nm in a SpectraMax Plus^384 microplate spectrophotometer (Molecular Devices, Sunnyvale, CA).
(§2) SERCA2a activity, F (rate of ATP hydrolysis or Ca^2+ uptake), was measured at varying pCa and varying compound concentration. F measured at [Ca^2+]MAX (saturating, pCa 5.4) or [Ca^2+]MID (subsaturating, midpoint, pCa 6.2) was corrected by subtracting the basal rate at pCa 8.0) and the % effect due to compound was reported. Concentration response curves (CRC) were fitted using the Hill function to determine VMAX (the activity at saturating [compound]), and EC50, the compound concentration at 50% effect.

SERCA2a [3] = molecular target: T2, SERCA2a; experiment: Oxalate-supported Fluo-4 Ca2+-uptake (Ca2+-transport) assay in pig cardiac SR (pCSR) vesicles; assay type: biochemical; settings: for Ca2+-Uptake C10: concentration yielding 10% effect; for CR (coupling ratio) VU/VA: maximum Ca2+-uptake rate / Ca2+-ATPase rate at [Ca2+]MAX, DMSO control = 0.66; for Inhibition of Ca2+-uptake (class): strong / moderate / mild; for Decrease of ΔFMAX and ΔFMID for Ca2+-uptake: both [Ca2+], stated as size of decrease
Experimental: as §1
Ca^2+-transport assays were performed with similar porcine SR samples as in the Ca^2+-ATPase assays described above. The compound effect on the Ca^2+-transport activity of SERCA2a was determined using an oxalate-supported assay in which the change in fluorescence in a Ca^2+-sensitive dye, Fluor-4, was determined as previously described. A buffered solution containing 50 mM MOPS (pH 7.0), 100 mM KCl, 30 mg/mL sucrose, 1 mM EGTA, 10 mM potassium oxalate, 2 µM Fluo-4, 30 µg/mL porcine cardiac SR vesicles, CaCl2 calculated to reach the free [Ca^2+] (pCa 8.0, 6.2, and 5.4), and compound (0.048 to 50 μM) was dispensed into 384-well black walled, transparent bottomed plates (Greiner Bio-One) containing the tested small molecule and incubated at 22℃ for 20 min while covered and protected from light. To start the reaction, MgATP was added to a final concentration of 5 mM, and the decrease in 485-nm excited fluorescence of Fluo-4 was monitored at 520 nm for 15 min using a FLIPR Tetra (Molecular Devices, San Jose, CA).
as §2

SERCA2a [4] = molecular target: T2, SERCA2a; set-up: method as in PMID 32397211; settings: read-out: EC50 of SERCA inhibition; cited from earlier work

| SMILES | EC50 [1] [µM] | EC50 (SERCA2a [2]; [Ca2+]MAX (pCa5.4)) [µM] | Ca2+-ATPase C10 (SERCA2a [2]; [Ca2+]MAX (pCa5.4)) [µM] | EC50 (SERCA2a [2]; [Ca2+]MID (pCa6.2)) [µM] | Ca2+-ATPase C10 (SERCA2a [2]; [Ca2+]MID (pCa6.2)) [µM] | EC50 (SERCA2a [3]; [Ca2+]MAX (pCa5.4)) [µM] | Ca2+-Uptake C10 (SERCA2a [3]; [Ca2+]MAX (pCa5.4)) [µM] | EC50 (SERCA2a [3]; [Ca2+]MID (pCa6.2)) [µM] | Ca2+-Uptake C10 (SERCA2a [3]; [Ca2+]MID (pCa6.2)) [µM] | CR (coupling ratio) VU/VA (SERCA2a [3]) | Inhibition of Ca2+-uptake (class) (SERCA2a [3]) | Decrease of ΔFMAX and ΔFMID for Ca2+-ATPase activity (SERCA2a [2]) | Decrease of ΔFMAX and ΔFMID for Ca2+-uptake (SERCA2a [3]) | EC50 (SERCA2a [4]) [µM] |
| --- | --- | --- | --- | --- | --- | --- | --- | --- | --- | --- | --- | --- | --- | --- |
| COC(=O)CSc1ncc(-c2ccc(F)cc2)c(C2CCCN(C(=O)c3cccc(F)c3)C2)n1 (centres unmarked) [Compound 11, methyl {[4-[1-(3-fluorobenzoyl)-3-piperidinyl]-5-(4-fluorophenyl)-2-pyrimidinyl]thio}acetate] | 14 ± 6.4 | 3.2 ± 0.4 | 0.8 | 3.6 ± 0.5 | 1.2 | 1.8 ± 0.04 | 0.2 | 2.8 ± 0.1 | 0.5 | 0.13 | – | – | – | – |
| OCC1(CCOc2ccccc2)CCCN(Cc2cc3c(cc2Cl)OCO3)C1 (centres unmarked) [Compound 13, [1-[(6-chloro-1,3-benzodioxol-5-yl)methyl]-3-(2-phenoxyethyl)-3-piperidinyl]methanol] | 9.9 ± 2.1 | – | 1 | – | 1.6 | 3.6 ± 0.1 | 0.5 | 6.4 ± 0.2 | 1.0 | – | – | – | – | – |
| CCc1ccc(S(=O)(=O)N2CCCC(C(=O)c3sccc3C)C2)cc1 (centres unmarked) [Compound 14, {1-[(4-ethylphenyl)sulfonyl]-3-piperidinyl}(3-methyl-2-thienyl)methanone] | 9.2 ± 1.1 | 13 ± 11 | 6.3 | 8.9 ± 2.2 | 3.2 | 3.4 ± 0.2 | 1.3 | 3.9 ± 0.2 | 1.7 | 0.16 | M → S; also recorded: moderate-to-strong | – | – | – |
| CCC(C)(C)c1nnc(NC(=O)NCc2ccc(F)cc2F)s1 [Compound 15, N-(2,4-difluorobenzyl)-N'-[5-(1,1-dimethylpropyl)-1,3,4-thiadiazol-2-yl]urea] | 16 ± 4.7 | – | 0.7 | – | 0.4 | – | 0.9 | – | 1.7 | 0.19 | – | ~ 50% | 70–95% | – |
| O=S(=O)(NCc1ccccc1)N1CCc2ccc(C(F)(F)F)cc2C1 [Compound 17, N-benzyl-7-(trifluoromethyl)-3,4-dihydroisoquinoline-2(1H)-sulfonamide] | 32 ± 5.3 | – | 6.2 | – | 5 | – | 1 | – | 2.2 | 0.09 | – | ~ 50% | 70–95% | – |
| Cc1nc(N2CCCCCCC2)ncc1C(C)NC(=O)c1ccnn1C (centres unmarked) [Compound 18, N-{1-[2-(1-azocanyl)-4-methyl-5-pyrimidinyl]ethyl}-1-methyl-1H-pyrazole-5-carboxamide] | 3 ± 0.3 | – | 2.2 | 0.18 ± 0.2 | 1 | – | 8.6 | – | 22.7 | 0.49 | Mild → M; also recorded: mild-to-moderate | – | – | – |
| C/C=C(/C)C(=O)O[C@H]1C(C)=C2[C@H]([C@@H]1OC(=O)CCCCCCC)[C@@](C)(OC(C)=O)C[C@H](OC(=O)CCC)[C@@]1(O)[C@H]2OC(=O)[C@@]1(C)O [Tg, thapsigargin] | – | – | – | – | – | – | – | – | – | – | – | – | – | ~0.0075 |
